# Assay results as given in PubChem BioAssay (NCI).
# Values joined by “and” are separate entries in the source; they are usually repeats but may differ in a detail not shown here. Equal values may be shown once.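 Method: 48-hour compound exposure of cells in 96-well plates, five concentrations, linear interpolation of endpoints. Abbreviation: GI50, concentration required for 50% inhibition of growth. TGI marks complete inhibition of growth.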
# What was measured:
# Test in all cases: growth of human tumour cells (NCI), 48 h
# [1] = test system: HCC-2998 colon
# [2] = test system: HCT-116 colon
# [3] = test system: SR leukemia
# [4] = test system: SF-295 CNS
# [5] = test system: SK-OV-3 ovarian
# [6] = test system: SF-268 CNS
# [7] = test system: SK-MEL-28 melanoma
# [8] = test system: DU-145 prostate
# [9] = test system: SNB-75 CNS
# [10] = test system: 786-0 renal
# [11] = test system: SN12C renal
# [12] = test system: OVCAR-5 ovarian
# [13] = test system: COLO 205 colon
# [14] = test system: UACC-257 melanoma
SMILES,TGI [1],TGI [2],TGI [3] [µM],TGI [4],TGI [5] [µM],TGI [6],TGI [7],TGI [8] [µM],TGI [9] [µM],TGI [10],TGI [11],TGI [12] [µM],TGI [13] [µM],TGI [14],GI50 [4] [µM],GI50 [6] [µM],GI50 [11] [µM],GI50 [14] [µM],GI50 [7],GI50 [9]
OC1(c2ccccc2)CC2CCC(C1)N2CCCC(O)(c1ccccc1)c1ccccc1 (stereo not drawn),6.25 µM,36.1 µM,> 100,10.6 µM,28.1,30.1 µM,32.9 µM,56.8,23.8,25.6 µM,39.1 µM,44.4,30.8,4 µM,,,,,,
CCN(CC)CCNc1c2ccccc2nc2cccc([N+](=O)[O-])c12,0.0315 µM and 0.0156 µM,0.0182 µM and 0.0466 µM,0.0888,0.0342 µM and 0.0643 µM,0.0637,0.056 µM and 0.42 µM,0.0566 µM and 0.152 µM,0.0146,0.0347,0.0266 µM and 0.0489 µM,0.0413 µM and 0.207 µM,0.0302,0.0176,0.0502 µM and 0.065 µM,0.015,0.0193,0.0221,0.022,,
Clc1ccc(Nc2ncco2)cc1Cl,> 10 µM,> 10 µM,> 10,> 10 µM,> 10,> 10 µM,> 10 µM,> 10,> 10,> 10 µM,> 10 µM,> 10,> 10,> 10 µM,,,,,,
O=[N+]([O-])c1cc(Br)cc2cc(Cl)cnc12,> 100 µM,> 100 µM,> 100,> 100 µM,> 100,> 100 µM,> 100 µM,> 100,92,> 100 µM,> 100 µM,> 100,> 100,> 100 µM,,,,,,
O=C1CC(c2ccc(Cl)cc2)C2(C(=O)NC(=S)NC2=O)C(c2ccc(Cl)cc2)C1 (stereo not drawn),43.3 µM,45.5 µM,> 100,35.9 µM,29,31.9 µM,30.6 µM,> 100,30.2,> 100 µM,40.6 µM,47.7,30.6,37.6 µM,,,,,,
NC(Cc1ccc(O)cn1)C(=O)NC(C(=O)O)c1ccccc1 (stereo not drawn),> 100 µM,> 100 µM,> 100,> 100 µM,,> 100 µM,> 100 µM,> 100,> 100,> 100 µM,> 100 µM,> 100,> 100,> 100 µM,,,,,,
c1ccc(-c2cnc(SC(c3ccccc3)c3ccccc3)[nH]2)cc1,35.8 µM,> 100 µM,64.3,> 100 µM,> 100,> 100 µM,> 100 µM,> 100,> 100,> 100 µM,65.4 µM,> 100,44.1,55.5 µM,,,,,,
Cc1nc2cn3c(c2c(=O)[nH]1)CCCCC3,> 100 µM,> 100 µM,> 100,> 100 µM,> 100,> 100 µM,> 100 µM,> 100,> 100,> 100 µM,,,> 100,> 100 µM,,,,,,
C=CCn1c(-c2cc(C(C)(C)C)c(O)c(C(C)(C)C)c2)cs/c1=N\C(P(=O)(O)O)P(=O)(O)O,> 100 µM,> 100 µM,> 100,> 100 µM,> 100,> 100 µM,> 100 µM,> 100,> 100,> 100 µM,> 100 µM,> 100,> 100,,,,,,,
Cc1sc2c(c1C)C(=O)c1cccn1-2,> 100 µM,> 100 µM,> 100,> 100 µM,> 100,> 100 µM,> 100 µM,> 100,> 100,> 100 µM,> 100 µM,> 100,> 100,> 100 µM,,,,,,
COC(=O)C1OC(O[C@H]2CC[C@]3(C)[C@H]4CC=C5[C@@H]6CC(C)(C)CC[C@]6(C(=O)OC)CC[C@@]5(C)[C@]4(C)CC[C@H]3C2(C)C)C(O)C(O)C1O (stereo partly drawn),20.3 µM,26.2 µM,14.4,28.7 µM,34.8,39.3 µM,32.7 µM,27.9,31.1,19.2 µM,26.8 µM,27.7,29.9,35.4 µM,,,,,,
CCOC(=O)c1c(N2CCCC2)[nH]c(=O)c(C(c2c(O)c(C(=O)OCC)c(N3CCCC3)[nH]c2=O)C(C)C)c1O,> 100 µM,> 100 µM,> 100,> 100 µM,> 100,> 100 µM,> 100 µM,> 100,96.5,> 100 µM,> 100 µM,> 100,> 100,> 100 µM,,,,,,
COc1ccccc1C1C2=C(COC2=O)Oc2cc3c(cc21)OCO3 (stereo not drawn),> 37.6 µM,> 100 µM,> 100,12.6 µM,45.9,85.8 µM,> 76 µM,> 42.4,21.9,28 µM,> 100 µM,> 92.4,14.2,> 100 µM,,,,,,
CC(=O)N1C(C(=O)NN2CCOCC2)CSC1c1ccccc1 (stereo not drawn),> 100 µM,> 100 µM,> 100,> 100 µM,> 100,> 100 µM,,> 100,> 100,> 100 µM,> 100 µM,> 100,> 100,> 100 µM,,,,,,
CC(=O)C(N1CCCCC1)C(O)(C(F)(F)F)C(F)(F)F (stereo not drawn),> 100 µM,> 100 µM,> 100,> 100 µM,> 100,,> 100 µM,> 100,> 100,> 100 µM,,> 100,> 100,> 100 µM,,,,,,
CC12NC(=C(C#N)C#N)C(C#N)=C3NC(N)=C(C#N)C(=C31)Oc1ccccc12 (stereo not drawn),> 100 µM,> 100 µM,> 100,> 100 µM,> 100,> 100 µM,> 100 µM,> 100,> 100,> 100 µM,> 100 µM,> 100,> 100,> 100 µM,,,,,,

SMILES,TGI [1],TGI [2],TGI [3] [µM],TGI [4],TGI [5] [µM],TGI [6],TGI [7],TGI [8] [µM],TGI [9] [µM],TGI [10],TGI [11],TGI [12] [µM],TGI [13] [µM],TGI [14],GI50 [4] [µM],GI50 [6] [µM],GI50 [11] [µM],GI50 [14] [µM],GI50 [7],GI50 [9]
O=C(O)c1cc(N=Nc2ccc([N+](=O)[O-])cc2)ccc1O,44.7 µM,> 100 µM,> 100,83.7 µM,> 100,> 100 µM,> 100 µM,> 100,> 100,> 100 µM,> 100 µM,> 100,> 100,74.7 µM,,,,,,
O=c1oc2ccc([N+](=O)[O-])cc2nc1/C=C(\O)c1ccccc1,> 100 µM,> 100 µM,> 100,> 100 µM,> 100,> 100 µM,> 100 µM,> 100,> 100,> 100 µM,> 100 µM,> 100,> 100,> 100 µM,,,,,,
Cc1cc(C)cc(Nc2nnc3n2S(=O)(=O)c2cc(C)c(Cl)cc2S3)c1,16.6 µM,> 100 µM,13.9,> 100 µM,> 100,31.1 µM,> 100 µM,97,> 100,> 100 µM,48.5 µM,> 100,> 100,30.5 µM,,,,,,
Oc1cc(O)c2c(c1)O[C@H](c1ccc(O)c(O)c1)[C@@H](O)C2,> 100 µM,> 100 µM,> 100,> 100 µM,,> 100 µM,> 100 µM,> 100,> 100,> 100 µM,> 100 µM,> 100,> 100,> 100 µM,,,,,,
c1ccc(CN2CCC(=NN3CCCCC3)CC2)cc1,> 100 µM,> 100 µM,> 100,> 100 µM,> 100,> 100 µM,> 100 µM,> 100,> 100,> 100 µM,> 100 µM,> 100,99.5,> 100 µM,,,,,,
N=c1c2sc3nc4ccccc4n3c2ncn1Cc1ccccc1,> 100 µM,> 100 µM,> 100,> 100 µM,> 100,> 100 µM,> 100 µM,> 100,> 100,> 100 µM,,> 100,> 100,> 100 µM,,,,,,
COc1ccc(C=Nc2ccc(-c3nc4ccccc4s3)cc2)cc1OC,40 µM,> 100 µM,> 100,55.5 µM,> 100,> 100 µM,> 100 µM,> 100,75.7,44.3 µM,> 100 µM,> 100,39.6,61 µM,,,,,,
Cc1ccc(S(=O)(=O)N(CC(O)COc2ccccc2)c2c(F)c(F)cc(F)c2F)cc1 (stereo not drawn),53.5 µM,> 100 µM,28.5,62 µM,47.2,38.2 µM,36.8 µM,> 100,42.6,58 µM,49.9 µM,76.3,29.1,,,,,,,
COc1ccc(/C=C2/N=C(N/N=C\C(O)C(O)C(O)CO)NC2=O)cc1 (stereo not drawn),> 100 µM,> 100 µM,> 100,> 100 µM,> 100,> 100 µM,> 100 µM,> 100,> 100,> 100 µM,> 100 µM,> 100,> 100,> 100 µM,,,,,> 100 µM and 31.3 µM,> 100 µM and 41.4 µM
COc1c(C)c(C/C=C(\C)CC/C=C(\C)CC/C=C(\C)CCC=C(C)C)c(OC)c(OC)c1OC,> 100 µM,> 100 µM,> 100,> 100 µM,> 100,> 100 µM,,> 100,> 100,> 100 µM,> 100 µM,> 100,> 100,> 100 µM,,,,,,
CC(=O)O[C@@H]1[C@H](OC2CCCCC2(c2ccccc2)c2ccccc2)O[N+]([O-])=CC12CCCCC2 (stereo partly drawn),32.6 µM,32 µM,> 100,29.2 µM,26.2,34.6 µM,27 µM,32,29.4,26.2 µM,35.4 µM,29.4,33.7,32 µM,,,,,,
C=C1C(=O)OC2C1CCC(=C)C1CC(O)C(=C)C12 (stereo not drawn),27.9 µM,26.4 µM,10.8,> 100 µM,> 100,31.7 µM,32 µM,29,37.3,19.6 µM,31.9 µM,26.3,6.89,27.2 µM,,,,,,
O=Cc1c2c(cc3c1CC1(C3)Cc3cc4c(c(C=O)c3C1)CCCC4)CCCC2,> 31.6 µM,> 31.6 µM,22.2,> 31.6 µM,> 31.6,> 100 µM,> 100 µM,> 100,> 100,> 31.6 µM,> 31.6 µM,> 31.6,> 31.6,> 31.6 µM,,,,,,
O=C1c2ccccc2N=C(c2cc3c(cc2Cl)Sc2nccn2S3(=O)=O)OS(=O)(=O)N1c1ccccc1,36 µM,31.5 µM,26.2,42.4 µM,> 100,> 100 µM,,> 100,46.1,> 100 µM,> 100 µM,78.8,42.6,> 100 µM,,,,,,
CN(C)CCCNC(=O)N/N=C/c1ccc(O)cc1,> 100 µM,> 100 µM,> 100,> 100 µM,> 100,> 100 µM,> 100 µM,> 100,> 100,> 100 µM,> 100 µM,> 100,> 100,> 100 µM,,,,,,
